Compound in the assay: Cc1cc([C@@H](C)Nc2ccccc2C(=O)O)c2nc(N3CCOCC3)cc(=O)n2c1 [AZD6482]
The assay can be described thus: relative viability (nuclei count vs DMSO), 5 days (fraction); higher = more cells survive. The procedure, abridged:
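On vehicle-anchored 1536-well plates, lung cancer cell lines held overnight at 37 °C were pinned with five library-drug doses (not always all listed) spaced by √10. With no medium change over 5 days, they were then fixed, permeabilised and Hoechst-stained in one step and imaged at 4×. MetaXpress counted nuclei, and viability is the median across plates of treated-well over vehicle-well nuclei. Acceptance needed control CV below 25% and at least one doubling.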

This passage reports relative viability results from the supplement of paper PMC10307832.

For the cell line NCI-H661, the relative viability was 0.981 (0.08 µM); 0.98 (0.253 µM); 0.973 (0.8 µM); 0.671 (2.53 µM); 0.851 (8 µM).

On to NCI-H727, for which the relative viability (0.08 µM) is 0.877; the relative viability (0.253 µM) was 0.789; the relative viability (0.8 µM) worked out at 0.945; the relative viability (2.53 µM) came to 0.58; the relative viability (8 µM) was found to be 0.833.

As to NCI-H838, the relative viability (0.08 µM) turned out to be 0.826; the relative viability (0.253 µM) is 0.95; the relative viability (0.8 µM) was determined as 0.914; the relative viability (2.53 µM) worked out at 0.538; the relative viability (8 µM) was determined as 0.535.

As to NCI-H1299, the relative viability worked out at 0.998 (0.08 µM); 1.07 (0.253 µM); 1.14 (0.8 µM); 0.914 (2.53 µM); 1.02 (8 µM).

Take NCI-H1355: the relative viability (0.08 µM) turned out to be 0.872; the relative viability (0.253 µM) was 0.852; the relative viability (0.8 µM) is 1.01; the relative viability (2.53 µM) amounted to 0.733; the relative viability (8 µM) was found to be 0.777.

Consider NCI-H1395, for which the relative viability by setting is: (0.08 µM) 0.742; (0.253 µM) 0.539; (0.8 µM) 0.697; (2.53 µM) 0.443; (8 µM) 0.527.

With NCI-H1437, the relative viability runs as follows: (0.08 µM) 1.04; (0.253 µM) 0.972; (0.8 µM) 1.03; (2.53 µM) 0.847; (8 µM) 0.726.

As for NCI-H1563, the relative viability (0.08 µM) worked out at 0.829; the relative viability (0.253 µM) was found to be 0.852; the relative viability (0.8 µM) worked out at 0.906; the relative viability (2.53 µM) was 0.763; the relative viability (8 µM) worked out at 0.722.

On to NCI-H1623, for which the relative viability amounted to 0.899 (0.08 µM); 0.947 (0.253 µM); 0.955 (0.8 µM); 0.76 (2.53 µM); 0.632 (8 µM).

With NCI-H1648, the relative viability by setting is: (0.08 µM) 0.888; (0.253 µM) 0.863; (0.8 µM) 0.954; (2.53 µM) 0.519; (8 µM) 0.599.

NCI-H1650: the relative viability stood at 0.839 (0.08 µM); 0.854 (0.253 µM); 0.778 (0.8 µM); 0.719 (2.53 µM); 0.862 (8 µM).

With NCI-H1651, the relative viability is, setting by setting: (0.08 µM) 0.897; (0.253 µM) 0.932; (0.8 µM) 0.93; (2.53 µM) 0.814; (8 µM) 0.815.

In the case of NCI-H1666, the relative viability runs as follows: (0.08 µM) 0.842; (0.253 µM) 0.95; (0.8 µM) 0.984; (2.53 µM) 0.853; (8 µM) 1.05.

NCI-H1703: the relative viability (0.08 µM) is 0.861; the relative viability (0.253 µM) came out at 0.797; the relative viability (0.8 µM) was 0.676; the relative viability (2.53 µM) was 0.332; the relative viability (8 µM) was 0.414.

For the cell line NCI-H1734, the relative viability is, setting by setting: (0.08 µM) 0.905; (0.253 µM) 0.907; (0.8 µM) 1.04; (2.53 µM) 0.611; (8 µM) 0.795.

As for NCI-H1755, the relative viability turned out to be 0.957 (0.08 µM); 0.953 (0.253 µM); 1 (0.8 µM); 0.756 (2.53 µM); 0.785 (8 µM).

For the cell line NCI-H1792, the relative viability (0.08 µM) was determined as 0.753; the relative viability (0.253 µM) was found to be 0.758; the relative viability (0.8 µM) was found to be 0.878; the relative viability (2.53 µM) came to 0.412; the relative viability (8 µM) turned out to be 0.496.

Take NCI-H1793: the relative viability (0.08 µM) turned out to be 0.774; the relative viability (0.253 µM) turned out to be 0.5; the relative viability (0.8 µM) was determined as 0.756; the relative viability (2.53 µM) was 0.386; the relative viability (8 µM) is 0.499.

Turning to NCI-H1915, the relative viability was determined as 0.996 (0.08 µM); 0.897 (0.253 µM); 1.09 (0.8 µM); 0.893 (2.53 µM); 1.01 (8 µM).

NCI-H1944: the relative viability was determined as 0.92 (0.08 µM); 0.836 (0.253 µM); 0.946 (0.8 µM); 0.685 (2.53 µM); 0.735 (8 µM).
